Results published in US20230293411A1, “BIODEGRADABLE UV ABSORBERS” (BASF SE, priority 2020, published 2023).
Structures can show the parent of a compound that is named as a salt. Where two headings read alike, the source gives them in different places.

Key:
[1] = Absorbance of croconic acid salts in formulation on PMMA plates; type: physicochemical; conditions: for Absorbance of the formulation: Formulations 1 and 2, 30 mg on PMMA plate, 15 minutes equilibration, 290-400 nm, FIG. 2, compared to Table 1
Description: The absorbance of Formulation 1 and 2 was determined as follows: […]
30 mg milligram of product were evenly spread on roughened PMMA plates (Heliosplate SB6, Helioscreen Creil/France) using a presaturated finger cot. After an equilibration time of 15 minutes transmission measurements between 290 and 400 nm were carried out using a spectrophotometer equipped with an integrating sphere (UV Transmittance Analyzer UV1000-S, Labsphere North Sutton/US).

[2] = Specific extinction coefficient by UV/VIS spectrophotometry in water; type: physicochemical
[3] = Biodegradation, OECD 301F manometric respirometry test; conditions: inferred from components; the salt itself was not tested

| SMILES | Absorbance of the formulation [1] | Crystallization after water evaporation ([1]; in formulation on PMMA plate) | E1, 1 (specific extinction coefficient at λmax) ([2]; in water, d=1 cm, at λmax) | Maximum absorbance wavelength (λmax) ([2]; in water, optical pathlength d=1 cm, spectrum 250 nm to 500 nm) [nm] | E1, 1 (specific extinction coefficient at λmax) [2] | Maximum absorbance wavelength (λmax) [2] [nm] | Biodegradability concluded from croconic acid and triethanolamine [3] |
| --- | --- | --- | --- | --- | --- | --- | --- |
| O=c1c([O-])c([O-])c(=O)c1=O.[Na+].[Na+] [Comp. Compound 1, 4,5-Dihydroxy-4-cyclopentene-1,2,3-trione di-Sodium Salt] | lower | crystallization | 1996 | 364 | – | – | – |
| O=c1c([O-])c([O-])c(=O)c1=O.[K+].[K+] [Comp. Compound 2, 4,5-Dihydroxy-4-cyclopentene-1,2,3-trione di-Potassium Salt] | – | – | – | – | 1704 | 364 | – |
| O=c1c(O)c(O)c(=O)c1=O [Compound A, 4,5-Dihydroxy-4-cyclopentene-1,2,3-trione di-triethanolammonium Salt] | within the expected range | – | – | – | 844 | 364 | biodegradable |
